2 molecules from patent publication US9668960B2, “Methods useful in studying or modulating skin or hair pigmentation, plant extracts for use in compositions and cosmetic care method” (L V M H RECHERCHE, priority 2008, dated 2017) can be followed below.

For one data set, the system named is FM55 melanoma cells. Nature of the data set: Melanin assay (melanogenesis) in moderately-pigmented FM55 melanoma. It is filed as cell-based, human. The settings on record: 72 h. As for the experimental part: Cells were then washed 3-times with sterile PBS and supplemented with 350 μl of either fresh serum-free RPMI medium (melanoma cells) or starved serum-free and BPE-free melanocyte medium (EM) and incubated at 37° C. and 5% CO2 for 24 h. Cells were then washed with sterile PBS 3-times and incubated with IBMX 1×10^-4 M at 37° C. and 5% CO2 for 12, 24, and 72 h. Cells were then gently washed 3-times with sterile PBS and fixed in ice-cold methanol for 10 minutes at -20° C. Slides were stored at -20° C. until immunocytochemistry was performed. […] The melanin standards were pipetted into a 96 well plate to produce a calibration curve for the assessment of melanin content in the test samples. 400 μl of 1 M NaOH was added to each cell pellet and dissolved on a heat block (100° C.) for 15 minutes. The pellets were vortexed vigorously and the solubilized pellet was pipetted into the same 96-well plate. The optical densities of the sample were read at […] on a DYNEX REVELATION 4.02 program. Melanin content of each test sample was read from the calibration curve. […] In addition IBMX and NH4Cl (positive melanocytic modulators) and niacinamide (negative modulator) were used as controls. […] Controls: Melanocytic modulators: IBMX (100 μM), NH4Cl (100 μM), and niacinamide (10 μM). (A) Melanin content was determined spectrophotometrically (475 nm) after sodium hydroxide solubilisation. […] (B). Results were expressed as the change in melanin content (pg/cell) compared to unstimulated control levels. Means are ±SEM of 3 independent experiments with *P<0.05, **P<0.01, ***P<0.001.

Data set [1] has as its system tyrosinase. Briefly: DOPA oxidase detection for tyrosinase activity in FM55 melanoma. It counts as cell-based, human. To be noted: 72 h. The protocol:
The cells were prepared for SDS-PAGE and transblotted onto PVDF membranes. 70 μg of un-reduced protein extract without boiling was pipetted into the appropriate wells of 8% SDS-PAGE gels. […] The L-DOPA reaction was stopped by washing the membrane in distilled water and the membrane was scanned. […] In addition IBMX and NH4Cl (positive melanocytic modulators) and niacinamide (negative modulator) were used as controls. […] Controls: Melanocytic modulators: IBMX (100 μM), NH4Cl (100 μM), and niacinamide (10 μM.). (A) Protein extracts were electroblotted and membranes stained with L-DOPA for the estimation of tyrosinase activity. (B) Densitometric scanning of band intensities and values were expressed as the fold increase compared to unstimulated control levels. Means are ±SEM of 3 independent experiments with *P<0.05, **P<0.01, ***P<0.001.

Data set [2] concerns Normal human epidermal melanocytes (F52; p5). Nature of the data set: Melanin assay (melanogenesis) in normal pigmented human melanocytes. It is filed as cell-based. The settings on record: 72 h. The protocol:
Cells were then washed 3-times with sterile PBS and supplemented with 350 μl of either fresh serum-free RPMI medium (melanoma cells) or starved serum-free and BPE-free melanocyte medium (EM) and incubated at 37° C. and 5% CO2 for 24 h. Cells were then washed with sterile PBS 3-times and incubated with IBMX 1×10^-4 M at 37° C. and 5% CO2 for 12, 24, and 72 h. Cells were then gently washed 3-times with sterile PBS and fixed in ice-cold methanol for 10 minutes at -20° C. Slides were stored at -20° C. until immunocytochemistry was performed. […] The melanin standards were pipetted into a 96 well plate to produce a calibration curve for the assessment of melanin content in the test samples. 400 μl of 1 M NaOH was added to each cell pellet and dissolved on a heat block (100° C.) for 15 minutes. The pellets were vortexed vigorously and the solubilized pellet was pipetted into the same 96-well plate. The optical densities of the sample were read at […] on a DYNEX REVELATION 4.02 program. Melanin content of each test sample was read from the calibration curve. […] In addition IBMX and NH4Cl (positive melanocytic modulators) and niacinamide (negative modulator) were used as controls. Visible change was not particularly evident in normal melanocyte due to their already high basal melanin levels (FIG. 1). By contrast, visible change was evident in melanoma cells basal melanin levels were low (FIG. 2). […] Normal human epidermal melanocytes (Female-52; p5) were treated for 72 h with L-18 (0.001%), L-19 (1%), L-20 (0.5%), L-21 (10 μg/ml), L-22 (1%) and L-23 (0.05 μg/ml). Controls: Melanocytic modulators: IBMX (100 μM), NH4Cl (100 μM), and niacinamide (10 μM). (A) Melanin content was determined spectro-photometrically (475 nm) after sodium hydroxide solubilise (B) Visible change was not particularly evident in these cells due to their already high basal melanin levels. Results were expressed as change in melanin content (pg/cell) compared to unstimulated control levels. Means are ±SEM of 3 independent experiments with *P<0.05, **P<0.01, ***P<0.001. NS-Not Significant

Data set [3] deals with tyrosinase. Briefly: DOPA oxidase detection for tyrosinase activity in pigmented normal human melanocytes. The settings on record: 72 h. It counts as cell-based. As for the experimental part:
The cells were prepared for SDS-PAGE and transblotted onto PVDF membranes. 70 μg of un-reduced protein extract without boiling was pipetted into the appropriate wells of 8% SDS-PAGE gels. […] The L-DOPA reaction was stopped by washing the membrane in distilled water and the membrane was scanned. […] In addition IBMX and NH4Cl (positive melanocytic modulators) and niacinamide (negative modulator) were used as controls. […] Normal human epidermal melanocytes (Female-52; p5) were treated for 72 h with L-18 (0.001%), L-19 (1%), L-20 (0.5%), L-21 (10 μg/ml), LVMH-22 (1%) and L-23 (0.05 μg/ml). Controls: Melanocytic modulators: IBMX (100 μM), NH4Cl (100 μM), and niacinamide (10 μM). (A) Protein extracts were electroblotted and membranes stained with L-DOPA for the estimation of tyrosinase activity.

Data set [4] concerns melanosome transfer from melanocytes to keratinocytes. Nature of the data set: Melanosome transfer after knockdown of Myo-X expression in epidermal melanocytes-keratinocytes co-culture. It counts as cell-based, human. To be noted: Myo-X-silenced melanocytes cultured with normal keratinocytes 24 h; vs non-silencing control siRNA. The protocol:
(§1) Knockdown of Myo-X using siRNA: A synthetic siRNA targeting human Myo-X (5′-[…]-3′) (SEQ ID No 1) and a non-silencing control, consisting of siRNA that has no known homology with mammalian genes (5′-[…]-3′) (SEQ ID No 2) was obtained from Qiagen, Valencia, Calif. A day before siRNA treatment, 5×10^5 epidermal melanocytes per well were plated onto six-well plates at 50-60% confluency and incubated at 37° C. for 12 h. Cells were then treated for 12 h with a final concentration of 25 nM siRNA by using HiPerFect Transfection Reagent (Qiagen, Valencia, Calif.) following the manufacturer's instructions. Fluorescence microscopy was used to verify that approximately 100% of the cells (using non-silencing control labelled with alexa fluor 488 labels) had taken up the siRNA. At 12 h, the cells from each well were replated into 8-well Lab-Tek® chamber slides. For co-culture studies siRNA treated melanocytes were seeded with normal keratinocytes (passage 2) in 8-well Lab-Tek® chamber slides at a cell density of 2×10^4 cells/well and in a ratio of 1 siRNA treated melanocyte to 10 normal keratinocytes. […]
Using this assay the rate of melanosome transfer from melanocytes to keratinocytes with non-silencing control siRNA conditions was determined (FIG. 8). […]

The next data set deals with human Myo-X. Nature of the data set: Knockdown of Myo-X using siRNA in epidermal melanocytes (western blot, immunofluorescence). It is filed as cell-based. The protocol:
as §1, with “keratinocytes. At 24 h the co-culture were processed for double Immunofluorescence staining with gp100 and cytokeratin or Myo-X to study of the influence of gene knockdown on melanosome transfer, and parallel samples were assayed by immunofluorescence staining and western blot analysis to verify gene knockdown.” for “keratinocytes.”

[5] abbreviates: L-18 0.001%, L-19 1%, L-20 0.5%, L-21 10 μg/ml, L-22 1%, L-23 0.05 μg/ml, IBMX 100 μM, NH4Cl 100 μM, niacinamide 10 μM, vs basal.

As for `Cl.N` [NH4Cl], in the data set on FM55 melanoma cells (setting [5]), the “Changes in melanin levels, FM55 % change” value is reported as “+478.82%”. Besides, the “Melanin content, FM55 (pg/cell)” value in the data set with FM55 melanoma cells (same doses as E3, basal 9.92) is “(56.83) pg/cell”. For the same molecule, the “effect on melanin content compared with basal levels” value with FM55 melanoma cells (FM55 melanoma cells, doses as E3) was “visible increases in melanogenesis”. In addition, the “Changes in tyrosinase activity, FM55 % change” value with tyrosinase [1] (same doses as E5, vs basal) is “+408.27%”. The “effect on tyrosinase (dopa oxidase) activity compared with basal levels” value in the data set with tyrosinase [1] (FM55 melanoma cells, doses as E5) is given as “dramatic increase in dopa oxidase activity of tyrosinase”; in the data set on tyrosinase [3] (normal melanocytes (EM), doses as E5), “dramatic increase in dopa oxidase activity of tyrosinase”. Besides, the “Changes in melanin levels, F52 EM % change” value in data set [2] (setting [5]) was “+166.17%”. In addition, the “Melanin content, F52 EM (pg/cell)” value in data set [2] (same doses as E1, basal 35.63) was “(94.83) pg/cell”. For the same molecule, the “Changes in tyrosinase activity, F52 EMc % change” value with tyrosinase [3] (setting [5]) is “+159.63%”.

On to “siRNA targeting human Myo-X: synthetic siRNA targeting human Myo-X (5′-CAGCGGTATAAGAGAAATCAA-3′), obtained from Qiagen (listed as DNA, chemistry not given here; listed as Homo sapiens)”, for which the “melanosome transfer reduced by” value in data set [4] worked out at 80%. Besides, the “expression of Myo-X compared to non-silencing control siRNA” value in the data set with human Myo-X (25 nM siRNA, 12 h, immunofluorescence) is listed as “almost completely inhibited”. The “filopodia in Myo-X-silenced melanocytes” value with human Myo-X (anti-gp100 double-immunolabelling) was “absence of filopodia”.
